# Measured values published in US20240132484A1, “BROAD SPECTRUM ANTIVIRAL COMPOUNDS TARGETING THE SKI COMPLEX” (priority 2020, published 2024).
# “And” between values parts separate entries of the source, which are not always exact repeats. Equal entries are not always repeated. “Also recorded” adds a separate entry of the source. Where two headings read alike, the source gives them in different places.
# Legend:
# [1] = test system: cells (nuclei count); conditions: for Toxicity Data, Average, Mean (percentage relative to appropriate DMSO control): average of Exp 1 and Exp 2, n=4; for Relative cell count to DMSO controls, Average 1 μM / Relative cell count to DMSO controls, Average 5 μM / Relative cell count to DMSO controls, Average 10 μM / Relative cell count to DMSO controls, Average 25 μM / Relative cell count to DMSO controls, Average 50 μM: toxicity data, 100=DMSO control; for Relative cell count to DMSO controls, Average (for correlation analysis): average value over the 5 tested concentrations (1 to 50 uM); for Toxicity Data, Average, Mean percentage relative to DMSO control: Average of Exp 1 (SMW491) and Exp 2 (SMW492); for Toxicity Data, Percentage Relative to Appropriate DMSO Control: single well
# [2] = test system: SARS2; format: cell-based, SARS-CoV-2; conditions: for Infection Data, Percentage Infection Relative to Appropriate DMSO Control with Avg Background Subtraction: duplicate wells, listed as SICLS62; for Infection Data, Average, Mean (Percentage Infection Relative to Appropriate DMSO Control): average of Exp 1 and Exp 2, n=4; for Percentage Inhibition Average 1 μM / Screening data (Relative infection to DMSO controls) Average 1 μM: SARS2, 1 μM; for Screening data (Relative infection to DMSO controls) Average 1 μM / Screening data (Relative infection to DMSO controls) Average 5 μM / Screening data (Relative infection to DMSO controls) Average 10 μM / Screening data (Relative infection to DMSO controls) Average 25 μM / Screening data (Relative infection to DMSO controls) Average 50 μM / Average (relative infection to DMSO over the 5 tested concentrations): 100=DMSO control; for Percentage Inhibition Average 5 μM / Screening data (Relative infection to DMSO controls) Average 5 μM: SARS2, 5 μM; for Percentage Inhibition Average 10 μM / Screening data (Relative infection to DMSO controls) Average 10 μM: SARS2, 10 μM; for Percentage Inhibition Average 25 μM / Screening data (Relative infection to DMSO controls) Average 25 μM: SARS2, 25 μM; for Percentage Inhibition Average 50 μM / Screening data (Relative infection to DMSO controls) Average 50 μM: SARS2, 50 μM; for Average (relative infection to DMSO over the 5 tested concentrations): SARS2, average over 1 to 50 uM; for Infection Data, Average, Mean percentage infection relative to DMSO control: Average of Exp 1 (SMW491) and Exp 2 (SMW492); for Infection Data, Percentage Infection Relative to Appropriate DMSO Control: single well, avg background subtraction
smiles,measurement,setting,value
CC1=C(C(=O)NCC2CCC2)C(c2cccs2)NC(=O)N1 (stereo not drawn) [SILCS62],"Toxicity Data, Average, Mean (percentage relative to appropriate DMSO control)",[1]; 1 uM,112.47%
same,"Relative cell count to DMSO controls, Average 1 μM",[1],112.47
same,"Toxicity Data, Average, Mean (percentage relative to appropriate DMSO control)",[1]; 5 uM,123.92%
same,"Relative cell count to DMSO controls, Average 5 μM",[1],123.92
same,"Toxicity Data, Average, Mean (percentage relative to appropriate DMSO control)",[1]; 10 uM,116.29%
same,"Relative cell count to DMSO controls, Average 10 μM",[1],116.29
same,"Toxicity Data, Average, Mean (percentage relative to appropriate DMSO control)",[1]; 25 uM,106.51%
same,"Relative cell count to DMSO controls, Average 25 μM",[1],106.51
same,"Toxicity Data, Average, Mean (percentage relative to appropriate DMSO control)",[1]; 50 uM,98.08%
same,"Relative cell count to DMSO controls, Average 50 μM",[1],98.08
same,"Relative cell count to DMSO controls, Average (for correlation analysis)",[1],111.45
same,"Infection Data, Percentage Infection Relative to Appropriate DMSO Control with Avg Background Subtraction","[2]; 1 uM, Exp 1 (SMW506)",84.10% and 102.05%
same,"Infection Data, Percentage Infection Relative to Appropriate DMSO Control with Avg Background Subtraction","[2]; 1 uM, Exp 2 (SMW492), SILCS 61-66 and 67-72 plates",50.01% and 36.38%
same,"Infection Data, Average, Mean (Percentage Infection Relative to Appropriate DMSO Control)",[2]; 1 uM,68.14%
same,"Infection Data, Percentage Infection Relative to Appropriate DMSO Control with Avg Background Subtraction","[2]; 5 uM, Exp 1 (SMW506)",45.05% and 53.24%
same,"Infection Data, Percentage Infection Relative to Appropriate DMSO Control with Avg Background Subtraction","[2]; 5 uM, Exp 2 (SMW492), SILCS 61-66 and 67-72 plates",9.05% and 14.15%
same,"Infection Data, Average, Mean (Percentage Infection Relative to Appropriate DMSO Control)",[2]; 5 uM,30.37%
same,"Infection Data, Percentage Infection Relative to Appropriate DMSO Control with Avg Background Subtraction","[2]; 10 uM, Exp 1 (SMW506)",84.98% and 89.35%
same,"Infection Data, Percentage Infection Relative to Appropriate DMSO Control with Avg Background Subtraction","[2]; 10 uM, Exp 2 (SMW492), SILCS 61-66 and 67-72 plates",5.57% and 5.50%
same,"Infection Data, Average, Mean (Percentage Infection Relative to Appropriate DMSO Control)",[2]; 10 uM,46.35%
same,"Infection Data, Percentage Infection Relative to Appropriate DMSO Control with Avg Background Subtraction","[2]; 25 uM, Exp 1 (SMW506)",83.54% and 119.74%
same,"Infection Data, Percentage Infection Relative to Appropriate DMSO Control with Avg Background Subtraction","[2]; 25 uM, Exp 2 (SMW492), SILCS 61-66 and 67-72 plates",1.62% and 0.75%
same,"Infection Data, Average, Mean (Percentage Infection Relative to Appropriate DMSO Control)",[2]; 25 uM,51.41%
same,"Infection Data, Percentage Infection Relative to Appropriate DMSO Control with Avg Background Subtraction","[2]; 50 uM, Exp 2 (SMW492), SILCS 61-66 and 67-72 plates",−0.82% and 2.34%
same,"Infection Data, Average, Mean (Percentage Infection Relative to Appropriate DMSO Control)",[2]; 50 uM,23.88%
same,Percentage Inhibition Average 1 μM,[2],31.86%
same,Screening data (Relative infection to DMSO controls) Average 1 μM,[2],68.14
same,Percentage Inhibition Average 5 μM,[2],69.63%
same,Screening data (Relative infection to DMSO controls) Average 5 μM,[2],30.37
same,Percentage Inhibition Average 10 μM,[2],53.65%
same,Screening data (Relative infection to DMSO controls) Average 10 μM,[2],46.35
same,Percentage Inhibition Average 25 μM,[2],48.59%
same,Screening data (Relative infection to DMSO controls) Average 25 μM,[2],51.41
same,Percentage Inhibition Average 50 μM,[2],76.12%
same,Screening data (Relative infection to DMSO controls) Average 50 μM,[2],23.88
same,Average (relative infection to DMSO over the 5 tested concentrations),[2],44.03
COc1ccc(CNCCc2ccccc2F)c(OCC(O)CN2CCCC2)c1 (racemic) [SILCS43],"Relative cell count to DMSO controls, Average 1 μM",[1],154.73
same,"Relative cell count to DMSO controls, Average 5 μM",[1],151.78
same,"Relative cell count to DMSO controls, Average 10 μM",[1],132.39
same,"Relative cell count to DMSO controls, Average 25 μM",[1],136.27
same,"Relative cell count to DMSO controls, Average 50 μM",[1],0.01
same,"Toxicity Data, Average, Mean percentage relative to DMSO control","[1]; n=4, 1 uM",154.73%
same,"Toxicity Data, Average, Mean percentage relative to DMSO control","[1]; n=4, 5 uM",151.78%
same,"Toxicity Data, Average, Mean percentage relative to DMSO control","[1]; n=4, 10 uM",132.39%
same,"Toxicity Data, Average, Mean percentage relative to DMSO control","[1]; n=4, 25 uM",136.27%
same,"Toxicity Data, Average, Mean percentage relative to DMSO control","[1]; n=4, 50 uM",0.01%
same,"Toxicity Data, Percentage Relative to Appropriate DMSO Control","[1]; Exp 1 (SMW491), 1 uM",151% and 166%
same,"Toxicity Data, Percentage Relative to Appropriate DMSO Control","[1]; Exp 1 (SMW491), 5 uM",130% and 166%
same,"Toxicity Data, Percentage Relative to Appropriate DMSO Control","[1]; Exp 1 (SMW491), 10 uM",118% and 121%
same,"Toxicity Data, Percentage Relative to Appropriate DMSO Control","[1]; Exp 1 (SMW491), 25 uM",121% and 136%
same,"Toxicity Data, Percentage Relative to Appropriate DMSO Control","[1]; Exp 1 (SMW491), 50 uM",0%
same,"Toxicity Data, Percentage Relative to Appropriate DMSO Control","[1]; Exp 2 (SMW492), 1 uM",156% and 145%
same,"Toxicity Data, Percentage Relative to Appropriate DMSO Control","[1]; Exp 2 (SMW492), 5 uM",155% and 156%
same,"Toxicity Data, Percentage Relative to Appropriate DMSO Control","[1]; Exp 2 (SMW492), 10 uM",145% and 146%
same,"Toxicity Data, Percentage Relative to Appropriate DMSO Control","[1]; Exp 2 (SMW492), 25 uM",143% and 145%
same,"Toxicity Data, Percentage Relative to Appropriate DMSO Control","[1]; Exp 2 (SMW492), 50 uM",0%
same,"Relative cell count to DMSO controls, Average (for correlation analysis)",[1],115.04
same,SARS2 antiviral activity,[2],highest activity to date; also recorded: most potent
same,potency relative to UMB18 (more potent),[2],3-4
same,"Infection Data, Average, Mean percentage infection relative to DMSO control","[2]; n=4, 1 uM",18.21%
same,"Infection Data, Average, Mean percentage infection relative to DMSO control","[2]; n=4, 5 uM",6.50%
same,"Infection Data, Average, Mean percentage infection relative to DMSO control","[2]; n=4, 10 uM",0.85%
same,"Infection Data, Average, Mean percentage infection relative to DMSO control","[2]; n=4, 25 uM",6.12%
same,"Infection Data, Average, Mean percentage infection relative to DMSO control","[2]; n=4, 50 uM",−13.34%
same,"Infection Data, Percentage Infection Relative to Appropriate DMSO Control","[2]; Exp 1 (SMW491), 1 uM",11.14% and 9.36%
same,"Infection Data, Percentage Infection Relative to Appropriate DMSO Control","[2]; Exp 1 (SMW491), 5 uM",5.93% and 4.01%
same,"Infection Data, Percentage Infection Relative to Appropriate DMSO Control","[2]; Exp 1 (SMW491), 10 uM",0.28% and −0.66%
same,"Infection Data, Percentage Infection Relative to Appropriate DMSO Control","[2]; Exp 1 (SMW491), 25 uM",1.98% and −0.83%
same,"Infection Data, Percentage Infection Relative to Appropriate DMSO Control","[2]; Exp 1 (SMW491), 50 uM",−10.07%
same,"Infection Data, Percentage Infection Relative to Appropriate DMSO Control","[2]; Exp 2 (SMW492), 1 uM",18.42% and 33.91%
same,"Infection Data, Percentage Infection Relative to Appropriate DMSO Control","[2]; Exp 2 (SMW492), 10 uM",1.81% and 1.99%
same,"Infection Data, Percentage Infection Relative to Appropriate DMSO Control","[2]; Exp 2 (SMW492), 50 uM",−16.61%
same,Percentage Inhibition Average 1 μM,[2],81.79%
same,Screening data (Relative infection to DMSO controls) Average 1 μM,[2],18.21
same,Percentage Inhibition Average 5 μM,[2],93.50%
same,Screening data (Relative infection to DMSO controls) Average 5 μM,[2],6.50
same,Percentage Inhibition Average 10 μM,[2],99.15%
same,Screening data (Relative infection to DMSO controls) Average 10 μM,[2],0.85
same,Percentage Inhibition Average 25 μM,[2],93.88%
same,Screening data (Relative infection to DMSO controls) Average 25 μM,[2],6.12
same,Percentage Inhibition Average 50 μM,[2],113.34%
same,Screening data (Relative infection to DMSO controls) Average 50 μM,[2],−13.34
same,Average (relative infection to DMSO over the 5 tested concentrations),[2],3.67
same,apparent IC50,[2]; racemic mixture,high nanomolar range
